Experimental data published in patent US5160727A, “Tumor cell sensitization method using quinazolinedione derivatives” (priority 1990, dated 1992).
Counter-ions that a name gives are not always drawn. Like-named read-outs stand apart in the source and are kept apart here.

Legend:
Assay type in all cases: cell-based, murine
P388S cells = assay: 72-hour growth inhibition of drug-sensitive P388S cells by anticancer drug alone or with modifier (Table I); conditions: for IC50: Mus musculus, P388/S, 72 h, P388S, mean of two experiments in triplicate, read-out: ID50 (concentration that inhibits 72-hour cell growth by 50%)
Protocol: (§1) In performing the studies P388 that were sensitive to adriamycin (P388S) and P388 cells that were resistant to adriamycin (P388/ADR) were exposed to various concentrations of anticancer drug either alone or together with 5 μg/mL of modifier or sensitizer for 72 hours.
(§2) The P388 murine leukemia cells used in obtaining the data set forth in Table I and Table II were obtained from Southern Research Institute (Birmingham, Ala.) and were cultured from ascites fluids of tumor-bearing DMA/2 mice and maintained in Fischer's medium supplemented with 10% horse serum, 10 μM 2-mercaptoethanol, and gentamycin (50 μg/mL). Cells were counted with a Model ZF Coulter Counter (Coulter Electronics, Inc., Hialeah, Fla.). Viability was determined by trypan blue exclusion. The general methodology is described by W. D. Klohs, et al, Cancer Research 46, 4352-4356 (September 1986) and W. D. Klohs, et al, J. Nat'l. Cancer Inst. 75, 353-359 (1985).

P388/ADR cells = assay: 72-hour growth inhibition of adriamycin-resistant P388/ADR cells by anticancer drug alone or with modifier (Table I); conditions: Mus musculus, mean of two experiments in triplicate, read-out: ID50 (concentration that inhibits 72-hour cell growth by 50%)
Protocol: as §1, §2

P388R cells = assay: Potentiation of adriamycin activity and cell growth in P388 resistant cells (Table II); conditions: for activity at 5 µM / activity at 10 µM: Mus musculus; for Degree of ADR Potentiation in P388R: footnote a (drawing 3)
Protocol: as §2, with “The general methodology is described by W. D. Klohs, et al, Cancer Research 46, 4352-4356 (September 1986) and W. D. Klohs, et al, J. Nat'l.” left out, “Inst.” for “Inst. 75, 353-359 (1985).”

[1] = anticancer drug alone, modifier none
[2] = anticancer drug with modifier CsA (cyclosporin A) 5 μg/mL
[3] = anticancer drug with modifier TIOP (tioperidone) 5 μg/mL
[4] = anticancer drug with modifier VER (verapamil) 5 μg/mL
[5] = P388, test compound at 5 μM, read-out: % of Control Cell Growth
[6] = P388, test compound at 10 μM, read-out: % of Control Cell Growth
[7] = test compound at 5 μM with adriamycin
[8] = test compound at 10 μM with adriamycin
[9] = P388, read-out: % of Control Cell Growth

Row | Compound | activity at 5 µM (P388R cells; [5]) | activity at 10 µM (P388R cells; [6]) | Degree of ADR Potentiation in P388R (P388R cells; [7]) | Degree of ADR Potentiation in P388R (P388R cells; [8]) | also measured
1 | COc1cccc2c1C(=O)c1c(O)c3c(c(O)c1C2=O)C[C@@](O)(C(=O)CO)C[C@@H]3O[C@H]1C[C@H](N)[C@H](O)[C@H](C)O1 [Adriamycin] |  |  |  |  | IC50 (P388S cells; [1]): 156 nM; IC50 (P388S cells; [2]): 147 nM; IC50 (P388S cells; [3]): 152 nM; IC50 (P388S cells; [4]): 152 nM; IC50 (P388/ADR cells; [1]): 7820 nM; IC50 (P388/ADR cells; [2]): 195 nM; IC50 (P388/ADR cells; [3]): 174 nM; IC50 (P388/ADR cells; [4]): 710 nM
2 | CNCCNc1ccc2c3c(nn2CCNCCO)-c2c(O)ccc(O)c2C(=O)c13 [CI-937, 7,10-dihydroxy-2-[2-[(2-hydroxyethyl)amino]ethyl]-5-[[2-(methylamino)ethyl]amino]anthra[1,9-cd]pyrazol-6(2H)-one dihydrochloride] |  |  |  |  | IC50 (P388S cells; [1]): 145 nM; IC50 (P388S cells; [2]): 135 nM; IC50 (P388S cells; [3]): 145 nM; IC50 (P388S cells; [4]): 147 nM; IC50 (P388/ADR cells; [1]): 5730 nM; IC50 (P388/ADR cells; [2]): 151 nM; IC50 (P388/ADR cells; [3]): 132 nM; IC50 (P388/ADR cells; [4]): 524 nM
3 | CCCSc1ccccc1N1CCN(CCCn2c(=O)[nH]c3ccccc3c2=O)CC1.Cl [Example 2, 3-[3-[4-[2-(propylthio)phenyl]-1-piperazinyl]propyl]-2,4-(1H,3H)-quinazolinedione monohydrochloride] | 89% | 87% | 13.1 | 22.0 | 
4 | CCCSc1ccccc1N1CCN(CCCCn2c(=O)[nH]c3ccc(Cl)cc3c2=O)CC1.Cl [Example 3, 6-chloro-3-[4-[4-[2-(propylthio)phenyl]-1-piperazinyl]butyl]-2,4-(1H,3H)quinazolinedione monohydrochloride] | 100% | 88% | 19.6 | 44.7 | 
5 | Cl.O=c1[nH]c2ccccc2c(=O)n1CCCCN1CCN(c2cccc(Cl)c2Cl)CC1 [Example 4, 3-[4-[4-(2,3-dichlorophenyl)-1-piperazinyl]butyl]-2,4-(1H,3H)-quinazolinedione monohydrochloride] |  |  | 21.8 | 31.7 | activity at 5 µM (P388R cells; [9]): 76%; activity at 10 µM (P388R cells; [9]): 76%
6 | CCSc1ccccc1N1CCN(CCCCn2c(=O)[nH]c3ccccc3c2=O)CC1.Cl [Example 5, 3-[4-[4-[2-(ethylthio)phenyl)-1-piperazinyl]butyl]-2,4-(1H,3H)-quinazolinedione monohydrochloride] | 79% | 78% | 19.6 | 46.6 | 
7 | CC(C)Sc1ccccc1N1CCN(CCCCn2c(=O)[nH]c3ccccc3c2=O)CC1.Cl [Example 6, 3-[4-[4-[2-[(1-methylethyl)thio]phenyl]-1-piperazinyl]butyl]-2,4-(1H,3H)-quinazolinedione monohydrochloride] | 91% | 59% | 24.2 | 52.2 | 
8 | CSc1ccccc1N1CCN(CCCCn2c(=O)[nH]c3ccccc3c2=O)CC1 [Example 7, 3-[4-[4-[2-methylthio)phenyl]-1-piperazinyl]butyl]-2,4(1H,3H)quinazolinedione monohydrochloride] | 95% | 72% | 25.2 | 48.4 | 
9 | CCCCSc1ccccc1N1CCN(CCCCn2c(=O)[nH]c3ccccc3c2=O)CC1.Cl [Example 8, 3-[4-[4-[2-(butylthio)phenyl]-1-piperazinyl]butyl]-2,4-(1H,3H)-quinazolinedione monohydrochloride] | 88% | 86% | 25.0 | 48.4 | 
10 | CCCSc1ccccc1N1CCN(CCCCn2c(=O)[nH]c3cc(Cl)ccc3c2=O)CC1.Cl [Example 9, 7-chloro-3-[4-[4-[2-(propylthio)phenyl]-1-piperazinyl]butyl]2,4(1H,3H)-quinazolinedione monohydrochloride] | 100% | 85% | 22.2 | 35.4 | 
11 | CCCSc1ccccc1N1CCN(CCCCn2c(=O)[nH]c3ccc(C)cc3c2=O)CC1.Cl [Example 10, 6-methyl-3-[4-[4[2(propylthio)phenyl]-1-piperazinyl]butyl]-2,4(1H,3H)-quinazolinedione monohydrochloride] | 92% | 85% | 21.0 | 48.4 | 
12 | CCCSc1ccccc1N1CCN(CCCCCCn2c(=O)[nH]c3ccccc3c2=O)CC1 [Example 11, 3-[6-[4-[2-(propylthio)phenyl]-1-piperazinyl]hexyl]-2,4-(1H,3H)quinazolinedione monohydrochloride, 1/3 hydrate] | 99% | 66% | 73.8 | 52.2 | 
13 | CCCSc1ccccc1N1CCN(CCCCn2c(=O)c3ccccc3n(C)c2=O)CC1 [Example 12, 1-methyl-3-[4-[4-[2-(propylthio)phenyl]-1-piperazinyl]butyl] -2,4-(1H,3H)quinazolinedione] | 100% | 87% | 17.9 | 39.1 | 
14 | CCCSc1ccccc1N1CCN(CCCCn2c(=O)[nH]c3cc(OC)c(OC)cc3c2=O)CC1 [Example 13, 6,7-dimethoxy-3-[4-[4-[2-(propylthio)phenyl]-1-piperazinyl]butyl]-2,4-(1H,3H)-quinazolinedione] | 100% | 10.4% | 93.0 | 52.2 | 
15 | CCCSc1ccccc1N1CCN(CCCCCn2c(=O)[nH]c3cc(OC)c(OC)cc3c2=O)CC1 [Example 14, 6,7-dimethoxy-3-[5-[4-[2-(propylthio)phenyl]-1-piperazinyl]pentyl]-2,4(1H,3H)-quinazolinedione] | 53% | 1.2% | 65.0 |  | 
16 | CCCSc1ccccc1N1CCN(CCCCn2c(=O)c3cc(OC)c(OC)cc3n(C)c2=O)CC1 [Example 15, 6,7-dimethoxy-1-methyl-3-[4-[4-[2-(propylthio)phenyl]-1-piperazinyl]butyl]-2,4(1H,3H)-quinazolinedione] | 46% | 2.6% | 21.2 |  | 
17 | CCCSc1ccccc1N1CCN(CCCCCn2c(=O)c3cc(OC)c(OC)cc3n(C)c2=O)CC1 [Example 16, 6,7-dimethoxy-1-methyl-3-[5-[4-[2-(propylthio)phenyl]-1-piperazinyl]pentyl]-2,4(1H,3H)-quinazolinedione] | 33% | 4.2% | 44.5 |  | 
18 | CCCSc1ccccc1N1CCN(CCCCn2c(=O)[nH]c3c(OC)cccc3c2=O)CC1 [Example 17, 8-methoxy-3-[4-[4-[2-(propylthio)phenyl]-1-piperazinyl]butyl]-2,4-(1H,3H)quinazolinedione] | 83% | 39% | 3.4 | 67.2 | 
19 | CCCSc1ccccc1N1CCN(CCCCn2c(=O)c3cccc(OC)c3n(C)c2=O)CC1.Cl [Example 18, 8-methoxy-1-methyl-3-[4-[4-[2-(propylthio)phenyl]-1-piperazinyl]butyl]-2,4-(1H,3H)quinazolinedione monohydrochloride] | 100% | 87% | 21.1 | 24.6 | 
20 | CCCSc1ccccc1N1CCN(CCCCCn2c(=O)[nH]c3ccccc3c2=O)CC1 [Example 19, 3-[5-[4-[2-(propylthio)phenyl]-1-piperazinyl]pentyl]-2,4-(1H,3H)-quinazolinedione] | 100% | 68% | 36.7 | 66.9 | 
21 | cyclosporin A |  |  |  |  | effect on adriamycin activity in drug-sensitive parent P388S cells (P388S cells; modifier with adriamycin): little effect
